Consider nine molecules from ChEMBL document CHEMBL1806439, “Synthesis and antihistamine evaluations of novel loratadine analogues” (2011).

The subject of experiment [1] is Cavia porcellus. The experiment in a line: Antiasthmatic activity in guinea pig assessed as inhibition of histamine phosphate solution-induced asthmatic reaction measured as increase in asthmogenic latency period at 0.5 mg/kg administered as intragastric (reference value: 99.30 +/- 30.06 sec). It is filed as functional.
Experiment [2] deals with Histamine H1 receptor (Cavia porcellus) (UniProt P31389). The experiment in a line: Inhibition of histamine H1 receptor in guinea pig ileum assessed as inhibition of histamine-induced muscle spasms at 2 x 10 '-3 mg/ml after 5 mins (reference value: 0.31 %). It counts as tissue-based.
Chain of Histamine H1 receptor (Cavia porcellus) (P31389 whole entry): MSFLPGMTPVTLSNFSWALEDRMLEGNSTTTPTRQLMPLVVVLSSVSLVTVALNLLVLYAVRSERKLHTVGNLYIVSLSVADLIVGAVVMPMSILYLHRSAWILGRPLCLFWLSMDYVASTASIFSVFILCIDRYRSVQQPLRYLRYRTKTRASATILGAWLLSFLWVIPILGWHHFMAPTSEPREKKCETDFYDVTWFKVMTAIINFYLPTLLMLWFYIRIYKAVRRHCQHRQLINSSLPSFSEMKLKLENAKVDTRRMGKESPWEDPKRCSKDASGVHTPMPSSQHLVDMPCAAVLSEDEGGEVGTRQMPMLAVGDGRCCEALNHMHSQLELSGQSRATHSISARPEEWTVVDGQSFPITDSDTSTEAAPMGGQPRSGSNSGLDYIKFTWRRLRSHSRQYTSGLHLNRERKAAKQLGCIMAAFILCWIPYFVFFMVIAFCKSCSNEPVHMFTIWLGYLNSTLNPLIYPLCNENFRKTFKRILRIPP
The subject of experiment [3] is Cavia porcellus. Description: Antiasthmatic activity in guinea pig assessed as inhibition of histamine phosphate solution-induced asthmatic reaction measured as increase in asthmogenic latency period at 0.2 mg/kg administered as intragastric (reference value: 95.50 +/- 18.98 sec). It counts as functional.

As usually defined, the inhibition is how much of the control response was suppressed. As for `C[C@@H](c1ccccc1)N1CCC(=C2c3ccc(Cl)cc3CCc3cccnc32)CC1`, the results for the Time in the experiment on Cavia porcellus [1] and in the experiment on Cavia porcellus [3] were 273.2 s and 170.2 s, respectively. Also, the inhibition in experiment [2] turned out to be 32.1%.
The corresponding values for `OCCCN1CCC(=C2c3ccc(Cl)cc3CCc3cccnc32)CC1` are 360 s, 360 s and 53.7%.
For `CN(C)CCC(c1ccc(Cl)cc1)c1ccccn1` (configuration not stated) [CHLORPHENIRAMINE], in that order: 214.7 s, 105.7 s and 41.3%.
The corresponding values for `C[C@H](c1ccccc1)N1CCC(=C2c3ccc(Cl)cc3CCc3cccnc32)CC1` are 309.6 s, 210.6 s and 31.4%.
With `C[C@@H](CO)N1CCC(=C2c3ccc(Cl)cc3CCc3cccnc32)CC1`, the Time with Cavia porcellus [1] is 209.7 s; with Cavia porcellus [3], 112.8 s. Besides, the inhibition in experiment [2] was found to be 49.7%.
For `OCCN1CCC(=C2c3ccc(Cl)cc3CCc3cccnc32)CC1`, in that order: 248.5 s, 133.3 s and 50.6%.
For `C[C@H](CO)N1CCC(=C2c3ccc(Cl)cc3CCc3cccnc32)CC1`, the Time in the experiment with Cavia porcellus [1] is given as 215.6 s; in the experiment on Cavia porcellus [3] it was 111.1 s. Moreover, in experiment [2], the inhibition was 32.4%.
The corresponding values for `CC[C@@H](CO)N1CCC(=C2c3ccc(Cl)cc3CCc3cccnc32)CC1` are 216 s, 123.1 s and 53.5%.
For `CC[C@H](CO)N1CCC(=C2c3ccc(Cl)cc3CCc3cccnc32)CC1`, in that order: 229.2 s, 125.3 s and 29.4%.
